Experimental data: BindingDB's records for doi:10.3109/14756369909030324 (University of Catania, 1999)

Biological target: T1, Amine oxidase [flavin-containing] B (Rattus norvegicus, UniProt P19643)
T1 sequence (P19643 whole entry): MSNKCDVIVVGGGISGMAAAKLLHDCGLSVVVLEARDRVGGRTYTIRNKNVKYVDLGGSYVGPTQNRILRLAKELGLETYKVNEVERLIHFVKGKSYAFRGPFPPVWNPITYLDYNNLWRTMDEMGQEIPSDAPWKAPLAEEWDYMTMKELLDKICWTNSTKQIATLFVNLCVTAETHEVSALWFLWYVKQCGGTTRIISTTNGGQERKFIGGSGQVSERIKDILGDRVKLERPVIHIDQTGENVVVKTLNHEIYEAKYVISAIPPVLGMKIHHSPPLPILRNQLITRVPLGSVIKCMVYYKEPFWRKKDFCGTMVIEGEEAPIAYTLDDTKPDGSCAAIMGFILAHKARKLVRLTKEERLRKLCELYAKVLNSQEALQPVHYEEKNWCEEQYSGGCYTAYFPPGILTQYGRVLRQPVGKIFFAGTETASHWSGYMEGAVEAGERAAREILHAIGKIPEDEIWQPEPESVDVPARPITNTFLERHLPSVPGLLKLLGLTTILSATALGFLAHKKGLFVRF
Assay: Enzyme Assay
Conditions: 37 °C
Description: MAO-B activity was measured by the spectrofluorimetric method of Morinan and Garratt.

| SMILES | IC50 [µM] |
| --- | --- |
| COc1ccc(-c2csc(NC(=O)CCN3CCCCC3)n2)cc1 [Thiazolyl derivative, 11] | 313 |
| CCN(CC)CCC(=O)c1sc(NC)nc1C [Thiazolyl derivative, 1] | 82.3 |
| Cc1nc(-c2ccccc2)sc1C(=O)CCN1CCOCC1 [Thiazolyl derivative, 4] | 7.8 |
| Cc1nc(-c2ccccc2)sc1C(=O)CCN1CCCCC1 [Thiazolyl derivative, 3] | 43.1 |
| COc1ccc(-c2csc(NC(=O)CN3CCCCC3)n2)cc1 [Thiazolyl derivative, 10] | 411 |

More lines, in order of falling IC50, values ahead:

| IC50 [µM] | SMILES |
| --- | --- |
| 90.2 | O=C(CN1CCCCC1)Nc1nc(-c2ccccc2)cs1 [Thiazolyl derivative, 9] |
| 7.5 | CCN(CC)CCC(=O)c1sc(-c2ccc(C)cc2)nc1C [Thiazolyl derivative, 2] |
